Experimental data from US20230098403A1, “MAGNETIC RESONANCE IMAGING CONTRAST AGENT, PREPARATION METHOD AND USE THEREOF” (GUANGZHOU PINGLAN MEDICAL TECHNOLOGY CO., LTD., priority 2020, published 2023).

Assays:
[1] = Relaxivity measurement (T1 and T2 relaxation, MRI Contrast Agent Analyzer); assay type: physicochemical; details: 0.5 T, 32° C.
Description: The method for measuring the relaxivity comprises the following steps: preparing contrast agent solutions in a gradient concentration (0.054, 0.109, 0.224, 0.451, 0.906 mM, in Hepes buffer, pH=7.4), and measuring the contrast agent samples at different concentrations by Niumag PQ001 MRI Contrast Agent Analyzer (0.5±0.08T, main frequency of instrument: 21.3 MHz; at 32° C.) to respectively obtain their T1 and T2 relaxation time, and then performing a linear fitting between the relaxation rate, Ri (Ri=1/Ti, i=1, 2) and the contrast agent concentrations to obtain a slope, i.e., relaxivity (ri, i=1, 2). Relaxivity reflects the ability of magnetic resonance imaging contrast agent to alter the relaxation time of water proton and is an important parameter to evaluate the quality of contrast agent. Relaxivity (ri, i=1, 2) is defined as the alteration in the relaxation rate of water proton (1/Ti, i=1, 2) by unit concentration of MRI Contrast agent (mmol/L).

[2] = comparison value for the commercial agent; cited from earlier work

Row | SMILES | relaxation efficiency r1 [1] [mmol⁻¹ s⁻¹] | relaxivity r1 [2] [mmol⁻¹ s⁻¹]
1 | O=C([O-])CN(CP(=O)([O-])O)C1CCCCC1N(CC(=O)[O-])CP(=O)([O-])O.[Fe+3].[Na+] (centres unmarked) [Example 4] | 1.80 | 
2 | CNC[C@H](O)[C@@H](O)[C@H](O)[C@H](O)CO.CNC[C@H](O)[C@@H](O)[C@H](O)[C@H](O)CO.O=C([O-])CN(CCN(CC(=O)[O-])CC(=O)O)CCN(CC(=O)[O-])CC(=O)O.[Gd+3] [Magnvist®] |  | 3.4
